Our source for the IC50 values is patent publication US20080064871A1, “Production Method of Nitrogen-Containing Fused Ring Compounds” (Japan Tobacco Inc., priority 2006, published 2008).

This assay concerns the target T1, human URAT1 (Homo sapiens, UniProt Q96S37).
T1 construct: Human URAT1 full length cDNA was subcloned to expression vector pcDNA3.1; expressed in transfected cells; host or cells: HEK293 cells (pcDNA3.1, geneticin-selected)
T1 sequence (Q96S37 1-553): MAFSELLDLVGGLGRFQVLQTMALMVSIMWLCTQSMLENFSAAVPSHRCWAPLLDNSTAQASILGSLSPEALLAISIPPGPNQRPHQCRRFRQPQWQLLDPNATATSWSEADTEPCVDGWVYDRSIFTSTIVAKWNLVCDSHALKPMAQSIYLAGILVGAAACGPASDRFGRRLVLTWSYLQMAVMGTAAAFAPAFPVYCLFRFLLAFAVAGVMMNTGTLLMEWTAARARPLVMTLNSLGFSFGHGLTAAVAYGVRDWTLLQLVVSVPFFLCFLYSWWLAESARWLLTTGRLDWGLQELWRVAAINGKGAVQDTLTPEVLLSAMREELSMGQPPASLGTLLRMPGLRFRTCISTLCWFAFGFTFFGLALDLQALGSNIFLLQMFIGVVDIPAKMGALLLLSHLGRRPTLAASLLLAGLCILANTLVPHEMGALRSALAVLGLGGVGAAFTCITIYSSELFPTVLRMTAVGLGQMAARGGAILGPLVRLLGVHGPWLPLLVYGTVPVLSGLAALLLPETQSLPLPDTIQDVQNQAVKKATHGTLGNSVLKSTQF
The assay is described as follows: Uric acid transport inhibitory test using human URAT1-expressing cells. The class given is cell-based. Conditions: human URAT1 expressing HEK293 cells, uptake of 14C-labeled uric acid for 5 min, room temperature; read-out: hURAT1 (IC50, concentration necessary for inhibiting the uric acid transport rate by 50%). The source says:
Reference Experimental Example 1 Uric Acid Transport Inhibitory Test Using Human Urat1-Expressing Cells
Human URAT1 full length cDNA was subcloned to expression vector pcDNA3.1 and human URAT1 gene was transfected into human embryonic kidney derived cell line (HEK293 cells) by liposome method using Lipofectamine2000. Simultaneously, HEK293 cells transfected with expression vector pcDNA3.1 alone (hereinafter mock cells) were also produced. HEK293 cells expressing human URAT1 gene or mock cells were selected with geneticin resistance as an index. The functional expression of human URAT1 gene was confirmed by a method similar to the following method, using transport of uric acid labeled with ^14C into the cells as an index.
Human URAT1 expressing HEK293 cells or mock cells were cultured in Dulbecco's modified Eagle's MEM medium (high glucose) containing 10% fetal bovine serum, 0.5 mg/mL geneticin sulfate, 100 units/mL penicillin and 100 μg/mL streptomycin under the conditions of 37° C. and 5% CO2 in an incubator. The cells were plated in a 96 well plate (poly-D-Lysine coated) at 1×10^5 cells/well and the following uric acid transport inhibitory test was performed 24 hr later. This test was performed at room temperature.
After the medium was removed by aspiration from each well, the cells were washed once with Hank's Balanced Salt Solution (HBSS) and preincubated with HBSS ([…]) for 5 min. HBSS was aspirated and an assay buffer (wherein NaCl in the above-mentioned HBSS had been substituted with Na-gluconate) containing various concentrations of the Example compound and a radioactive ligand (uric acid labeled with 14C; final concentration […]) was added to each well at […] and an uptake reaction was carried out for 5 min. After the reaction, the cells were washed twice with ice-cold HBSS ([…]), and Microscin ti TM 20 (PerkinElmer) was added at […]. The cells were lysed by stirring and the radioactivity of each well was measured in a liquid scintillation counter (TOP COUNT, Packard).
The uric acid transport rate (%) of the Example compound at each concentration was calculated relative to the radioactivity (difference in radioactivity between human URAT1 expressing HEK293 cells and mock cells without addition of Example compound (DMSO addition)) showing URAT1 specific uric acid transport as 100%, and the concentration (IC50) of the Example compound necessary for inhibiting the uric acid transport rate by 50% was determined. In Table-Table, “+++” means IC50 value of less than 100 nM, “++” means IC50 value of 100 nM to less than 1000 nM, and “+” means IC50 value of 1000 nM to less than 3000 nM.
On to `O=C(c1cc(Cl)c(O)c(Cl)c1)N1CCOc2ccc(O)cc21` [Example 19, (3,5-dichloro-4-hydroxyphenyl)-(6-hydroxy-2,3-dihydrobenzo[1,4]oxazin-4-yl)-methanone], for which the IC50 lay in the range of 100 to 1000 nM. Consider `O=C(c1cc(Cl)c(O)c(Cl)c1)N1CCOc2cc(O)ccc21` [Example 20, (3,5-dichloro-4-hydroxyphenyl)-(7-hydroxy-2,3-dihydrobenzo[1,4]oxazin-4-yl)-methanone], for which the IC50 lay within 100 to 1000 nM. With `CCN(CC)S(=O)(=O)c1ccc2c(c1)N(C(=O)c1cc(Cl)c(O)c(Cl)c1)CCO2` [Example 21, 4-(3,5-dichloro-4-hydroxybenzoyl)-3,4-dihydro-2H-benzo[1,4]oxazine-6-sulfonic acid diethylamide], the IC50 was 100 to 1000 nM. In the case of `O=S(=O)(c1cc(Cl)c(O)c(Cl)c1)N1CCOc2ccccc21` [Example 22, 2,6-dichloro-4-(2,3-dihydrobenzo[1,4]oxazine-4-sulfonyl)phenol], the IC50 lay in the range of 1000 to 3000 nM.

Regarding `CC(C)(C)c1ccc2c(c1)N(C(=O)c1cc(Cl)c(O)c(Cl)c1)CCO2` [Example 23, (6-tert-butyl-2,3-dihydrobenzo[1,4]oxazin-4-yl)-(3,5-dichloro-4-hydroxyphenyl)-methanone], the IC50 fell in the range of 1000 to 3000 nM. The figure for `O=C1COc2ccccc2N1C(=O)c1cc(Cl)c(O)c(Cl)c1` [Example 24, 4-(3,5-dichloro-4-hydroxybenzoyl)-4H-benzo[1,4]oxazin-3-one] is 1000 to 3000 nM; for `O=C(c1cc(Cl)c(O)c(Cl)c1)N1CCCc2ccccc21` [Example 26, (3,5-dichloro-4-hydroxyphenyl)-(3,4-dihydro-2H-quinolin-1-yl)-methanone] it is 100 to 1000 nM; for `O=C(c1cc(Cl)c(O)c(Cl)c1)N1CCCCc2ccccc21` [Example 27, (3,5-dichloro-4-hydroxyphenyl)-(2,3,4,5-tetrahydrobenzo[b]azepin-1-yl)-methanone] it is 100 to 1000 nM. Next, `O=C(c1cnc(O)c(Cl)c1)N1CCOc2ccccc21` [Example 29, (5-chloro-6-hydroxypyridin-3-yl)-(2,3-dihydrobenzo[1,4]oxazin-4-yl)-methanone]: 1000 to 3000 nM; `O=C(c1cc([N+](=O)[O-])c(O)c([N+](=O)[O-])c1)N1CCOc2ccccc21` [Example 30, (2,3-dihydrobenzo[1,4]oxazin-4-yl)-(4-hydroxy-3,5-dinitrophenyl)-methanone]: 100 to 1000 nM; `O=C(c1cc(Cl)c(O)c([N+](=O)[O-])c1)N1CCOc2ccccc21` [Example 31, (3-chloro-4-hydroxy-5-nitrophenyl)-(2,3-dihydrobenzo[1,4]oxazin-4-yl)-methanone]: less than 100 nM. Turning to `O=C(c1cc(Cl)c(O)c(Cl)c1)N1CCOc2ccc(S(=O)(=O)N3CCCC3)cc21` [Example 33, (3,5-dichloro-4-hydroxyphenyl)-[6-(pyrrolidine-1-sulfonyl)-2,3-dihydrobenzo[1,4]oxazin-4-yl]-methanone], the IC50 was in the range of 100 to 1000 nM. Regarding `CN(C)S(=O)(=O)c1ccc2c(c1)N(C(=O)c1cc(Cl)c(O)c(Cl)c1)CCO2` [Example 35, 4-(3,5-dichloro-4-hydroxybenzoyl)-3,4-dihydro-2H-benzo[1,4]oxazine-6-sulfonic acid dimethylamide], the IC50 fell in the range of 1000 to 3000 nM. The figure for `O=C(c1cc(Cl)c(O)c(Cl)c1)N1CCOc2cccnc21` [Example 36, (3,5-dichloro-4-hydroxyphenyl)-(2,3-dihydropyrido[3,2-b][1,4]oxazin-4-yl)-methanone] is 100 to 1000 nM. Regarding `O=C(c1cc(Cl)cc(Cl)c1O)N1CCOc2ccccc21` [Example 38, (3,5-dichloro-2-hydroxyphenyl)-(2,3-dihydrobenzo[1,4]oxazin-4-yl)-methanone], the IC50 is 100 to 1000 nM. Regarding `O=C(c1ccc(O)c(C(F)(F)F)c1)N1CCOc2ccccc21` [Example 39, (2,3-dihydrobenzo[1,4]oxazin-4-yl)-(4-hydroxy-3-trifluoromethylphenyl)-methanone], the IC50 was less than 100 nM.

As to `COc1cc(C(=O)N2CCOc3ccccc32)cc(Cl)c1O` [Example 40, (3-chloro-4-hydroxy-5-methoxyphenyl)-(2,3-dihydrobenzo[1,4]oxazin-4-yl)-methanone], the IC50 was in the range of 100 to 1000 nM. The figure for `O=C(c1ccc(Cl)c(O)c1)N1CCOc2ccccc21` [Example 41, (4-chloro-3-hydroxyphenyl)-(2,3-dihydrobenzo[1,4]oxazin-4-yl)-methanone] is 100 to 1000 nM.

For `O=C(c1cc(Cl)c(O)c(Cl)c1)N1CCOc2ccc(F)cc21` [Example 44, (3,5-dichloro-4-hydroxyphenyl)-(6-fluoro-2,3-dihydrobenzo[1,4]oxazin-4-yl)-methanone], the IC50 is less than 100 nM. As to `O=C(c1cc(Cl)c(O)c(Cl)c1O)N1CCOc2ccccc21` [Example 50, (3,5-dichloro-2,4-dihydroxyphenyl)-(2,3-dihydrobenzo[1,4]oxazin-4-yl)-methanone], the IC50 fell in the range of 100 to 1000 nM. For `O=C(c1cc(Cl)c(O)c(Cl)c1)N1CCOc2ccc(Cl)cc21` [Example 51, (6-chloro-2,3-dihydrobenzo[1,4]oxazin-4-yl)-(3,5-dichloro-4-hydroxyphenyl)-methanone], the IC50 is less than 100 nM. The figure for `O=C(c1cc(Cl)c(O)c(Cl)c1)N1CCOc2cc(Cl)ccc21` [Example 52, (7-chloro-2,3-dihydrobenzo[1,4]oxazin-4-yl)-(3,5-dichloro-4-hydroxyphenyl)-methanone] is 100 to 1000 nM; for `O=C(c1cc(Cl)c(O)c(Cl)c1)N1CCNc2ccccc21` [Example 54, (3,5-dichloro-4-hydroxyphenyl)-(3,4-dihydro-2H-quinoxalin-1-yl)-methanone] it is 100 to 1000 nM. Next, `COC(=O)c1ccc2c(c1)N(C(=O)c1cc(Cl)c(O)c(Cl)c1)CCO2` [Example 55, methyl 4-(3,5-dichloro-4-hydroxybenzoyl)-3,4-dihydro-2H-benzo[1,4]oxazine-6-carboxylate]: 100 to 1000 nM. Turning to `O=C(c1cc(Cl)c(O)c(Cl)c1)N1CCOc2ccc(CO)cc21` [Example 56, (3,5-dichloro-4-hydroxyphenyl)-(6-hydroxymethyl-2,3-dihydrobenzo[1,4]oxazin-4-yl)-methanone], the IC50 was in the range of 100 to 1000 nM.

`COC(=O)c1cccc2c1N(C(=O)c1cc(Cl)c(O)c(Cl)c1)CCO2` [Example 58, methyl 4-(3,5-dichloro-4-hydroxybenzoyl)-3,4-dihydro-2H-benzo[1,4]oxazine-5-carboxylate]: the IC50 was 100 to 1000 nM.

As to `COC(=O)c1ccc2c(c1)OCCN2C(=O)c1cc(Cl)c(O)c(Cl)c1` [Example 59, methyl 4-(3,5-dichloro-4-hydroxybenzoyl)-3,4-dihydro-2H-benzo[1,4]oxazine-7-carboxylate], the IC50 was in the range of 1000 to 3000 nM. For `COC(=O)c1cccc2c1OCCN2C(=O)c1cc(Cl)c(O)c(Cl)c1` [Example 61, methyl 4-(3,5-dichloro-4-hydroxybenzoyl)-3,4-dihydro-2H-benzo[1,4]oxazine-8-carboxylate], the IC50 was in the range of 1000 to 3000 nM. Next, `O=C(c1cc(Cl)c(O)c(Cl)c1)N1c2ccccc2Oc2ccccc21` [Example 64, (3,5-dichloro-4-hydroxyphenyl)-phenoxazin-10-ylmethanone]: 1000 to 3000 nM; `O=C(c1cc(Cl)c(O)c(Cl)c1)N1CCOc2ccc(-c3ccccc3)cc21` [Example 65, (3,5-dichloro-4-hydroxyphenyl)-(6-phenyl-2,3-dihydrobenzo[1,4]oxazin-4-yl)-methanone]: 1000 to 3000 nM.
